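Here, GI50 denotes the concentration required for 50% inhibition of growth. TGI: concentration producing complete growth inhibition.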
How the values were obtained:
Test in all cases: NCI-60 cell line screen, 384-well format; in the data active = GI50 below about 0.43 µM; inactive = the rest
[1] = tested on: MALME-3M melanoma
[2] = tested on: SK-OV-3 ovarian
[3] = tested on: OVCAR-8 ovarian
[4] = tested on: KM12 colon
[5] = tested on: HT29 colon
[6] = tested on: OVCAR-3 ovarian
[7] = tested on: UACC-62 melanoma
[8] = tested on: M14 melanoma
[9] = tested on: K-562 leukemia
[10] = tested on: MDA-MB-435 melanoma
[11] = tested on: TK-10 renal
[12] = tested on: NCI-H322M lung
[13] = tested on: HOP-92 NSCLC
[14] = tested on: CCRF-CEM leukemia
[15] = tested on: NCI/ADR-RES ovarian
[16] = tested on: NCI-H226 lung
[17] = tested on: SNB-75 CNS
[18] = tested on: NCI-H460 NSCLC
[19] = tested on: U251 glioblastoma
[20] = tested on: A549 NSCLC
[21] = tested on: MCF7 breast
[22] = tested on: ACHN renal
[23] = tested on: T-47D breast
[24] = tested on: SF-268 CNS
[25] = tested on: HCC-2998 colon
[26] = tested on: HCT-15 colon
[27] = tested on: EKVX NSCLC
[28] = tested on: HOP-62 NSCLC
[29] = tested on: DU-145 prostate
[30] = tested on: LOX IMVI melanoma
[31] = tested on: SNB-19 CNS
[32] = tested on: RXF 393 renal
[33] = tested on: SW-620 colon
[34] = tested on: COLO 205 colon
[35] = tested on: SR leukemia
[36] = tested on: NCI-H522 lung
[37] = tested on: MOLT-4 leukemia
[38] = tested on: SF-539 CNS
[39] = tested on: MDA-MB-468 breast
[40] = tested on: OVCAR-4 ovarian
[41] = tested on: SF-295 CNS
[42] = tested on: A498 renal
[43] = tested on: SN12C renal
[44] = tested on: 786-0 renal
[45] = tested on: UACC-257 melanoma
[46] = tested on: HL-60(TB) leukemia
[47] = tested on: SK-MEL-28 melanoma
[48] = tested on: UO-31 renal
[49] = tested on: MDA-MB-231 breast
[50] = tested on: CAKI-1 renal
[51] = tested on: BT-549 breast
[52] = tested on: SK-MEL-5 melanoma
[53] = tested on: RPMI-8226 leukemia
[54] = tested on: HCT-116 colon
[55] = tested on: NCI-H23 lung
[56] = tested on: HS 578T breast

CCc1cc(C(N)=O)ccc1-n1nc(C(C)C)c2c(-n3cnc(-c4cnn(C)c4)c3)ccnc21
1090 nM: TGI [53]
1260 nM: TGI [30]
1660 nM: TGI [41]
329 nM: TGI [35]
614 nM: TGI [32]
3.08 µM: TGI [19]
1620 nM: TGI [3]
6.07 µM: TGI [49]
3.06 µM: TGI [13]
405 nM: TGI [46]
15.5 µM: TGI [33]
active: GI50 [1] 240 nM | GI50 [3] 396 nM | GI50 [4] 374 nM | GI50 [5] 398 nM | GI50 [9] 326 nM | GI50 [14] 289 nM | GI50 [17] 402 nM | GI50 [18] 285 nM | GI50 [20] 411 nM | GI50 [21] 305 nM | GI50 [25] 406 nM | GI50 [29] 369 nM | GI50 [30] 382 nM | GI50 [32] 236 nM | GI50 [33] 407 nM | GI50 [34] 392 nM | GI50 [35] 169 nM | GI50 [36] 210 nM | GI50 [37] 182 nM | GI50 [38] 304 nM | GI50 [39] 276 nM | GI50 [41] 426 nM | GI50 [43] 412 nM | GI50 [46] 189 nM | GI50 [47] 387 nM | GI50 [53] 376 nM | GI50 [55] 301 nM | GI50 [56] 418 nM
873 nM: TGI [55]
595 nM: TGI [39]
2020 nM: TGI [17]
1870 nM: TGI [25]
645 nM: TGI [18]
inactive: GI50 [2] 738 nM | GI50 [6] 454 nM | GI50 [7] 702 nM | GI50 [8] 488 nM | GI50 [10] 653 nM | GI50 [11] 487 nM | GI50 [12] 799 nM | GI50 [13] 675 nM | GI50 [15] 16.9 µM | GI50 [16] 3.04 µM | GI50 [19] 485 nM | GI50 [22] 902 nM | GI50 [23] 1590 nM | GI50 [24] 510 nM | GI50 [26] 534 nM | GI50 [27] 712 nM | GI50 [28] 584 nM | GI50 [31] 778 nM | GI50 [40] 6.01 µM | GI50 [42] 1110 nM | GI50 [44] 825 nM | GI50 [45] 5.93 µM | GI50 [48] 1130 nM | GI50 [49] 643 nM | GI50 [50] 767 nM | GI50 [51] 651 nM | GI50 [52] 532 nM | GI50 [54] 561 nM
23 µM: TGI [8]
3.24 µM: TGI [7]
5.8 µM: TGI [29]
1250 nM: TGI [14]
3.66 µM: TGI [9]
2230 nM: TGI [6] | TGI [56]
39.1 µM: TGI [52]
75.4 µM: TGI [15]
502 nM: TGI [1]
349 nM: TGI [37]
768 nM: TGI [38]
458 nM: TGI [36]
20 µM: TGI [47]
2440 nM: TGI [43]
10.1 µM: TGI [23]
9.96 µM: TGI [51]
82.9 µM: TGI [54]
> 100 µM: TGI [2] | TGI [4] | TGI [5] | TGI [10] | TGI [11] | TGI [12] | TGI [16] | TGI [20] | TGI [21] | TGI [22] | TGI [24] | TGI [26] | TGI [27] | TGI [28] | TGI [31] | TGI [34] | TGI [40] | TGI [42] | TGI [44] | TGI [45] | TGI [48] | TGI [50]

Reference: PubChem BioAssay (NCI)
